Source: patent US12091402B2 (Avilar Therapeutics, Inc., priority 2021, dated 2024)

Biological target: T1, ASGPR (Homo sapiens, UniProt P07306)
T1 sequence (P07306 1-291): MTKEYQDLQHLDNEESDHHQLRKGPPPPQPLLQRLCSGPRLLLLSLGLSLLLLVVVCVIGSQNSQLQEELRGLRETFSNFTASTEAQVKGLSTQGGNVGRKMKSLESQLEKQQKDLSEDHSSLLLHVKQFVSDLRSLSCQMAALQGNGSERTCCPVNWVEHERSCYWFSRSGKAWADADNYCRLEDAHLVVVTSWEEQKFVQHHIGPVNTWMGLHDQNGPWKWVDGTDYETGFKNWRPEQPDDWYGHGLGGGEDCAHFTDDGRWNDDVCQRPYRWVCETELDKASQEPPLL
Experiment: Affinity to ASGPR by surface plasmon resonance (SPR)

| Structure (SMILES) | Kd |
| --- | --- |
| O=C(O)CC(=O)NC[C@H]1OC[C@H](Nc2cncc(C(F)(F)F)n2)[C@@H](O)[C@H]1O [A32, 3-((((2R,3R,4R,5S)-3,4-dihydroxy-5-((6-(trifluoromethyl)pyrazin-2-yl)amino)tetrahydro-2H-pyran-2-yl)methyl)amino)-3-oxopropanoic acid] | < 1000 nM |
| OCc1cn(C[C@H]2OC[C@H](Nc3nccc(C(F)(F)F)n3)[C@@H](O)[C@H]2O)nn1 [A68, (2R,3R,4R,5S)-2-((4-(hydroxymethyl)-1H-1,2,3-triazol-1-yl)methyl)-5-((4-(trifluoromethyl)pyrimidin-2-yl)amino)tetrahydro-2H-pyran-3,4-diol] | < 1000 nM |
| O=[N+]([O-])c1ccc(NCCOCCOCCOCCOC[C@H]2OC[C@@H](Nc3nc(Cl)ns3)[C@@H](O)[C@H]2O)c([N+](=O)[O-])c1 [Compound 24, (2R,3R,4R,5R)-5-((3-chloro-1,2,4-thiadiazol-5-yl)amino)-2-(13-((2,4-dinitrophenyl)amino)-2,5,8,11-tetraoxatridecyl)tetrahydro-2H-pyran-3,4-diol] | < 100 nM |
| O[C@@H]1[C@H](O)[C@@H](Nc2cncc(C(F)(F)F)n2)CO[C@@H]1CNc1cnccn1 [A122] | < 1000 nM |
| O=C(O)CNC(COCCC(=O)NCCOCCOCCOCCOC[C@H]1OC[C@H](Nc2cncc(C(F)(F)F)n2)[C@@H](O)[C@H]1O)COCCC(=O)NCCOCCOCCOCCOC[C@H]1OC[C@H](Nc2cncc(C(F)(F)F)n2)[C@@H](O)[C@H]1O [A31, (1,39-bis((2R,3R,4R,5S)-3,4-dihydroxy-5-((6-(trifluoromethyl)pyrazin-2-yl)amino)tetrahydro-2H-pyran-2-yl)-15,25-dioxo-2,5,8,11,18,22,29,32,35,38-decaoxa-14,26-diazanonatriacontan-20-yl)glycine] | < 100 nM |
| CCOC(=O)c1ccc(Cl)nc1N[C@H]1[C@H]2OC[C@](CO)(O2)[C@H](O)[C@@H]1O [A112, ethyl 6-chloro-2-(((1S,2R,3R,4R,5S)-2,3-dihydroxy-1-(hydroxymethyl)-6,8-dioxabicyclo[3.2.1]octan-4-yl)amino)nicotinate] | 1000 to 10000 nM |
| COc1cccc(N(C)C[C@H]2OC[C@H](Nc3cncc(C(F)(F)F)n3)[C@@H](O)[C@H]2O)c1 [A106, (2R,3R,4R,5S)-2-(((3-methoxyphenyl)(methyl)amino)methyl)-5-((6-(trifluoromethyl)pyrazin-2-yl)amino)tetrahydro-2H-pyran-3,4-diol] | < 1000 nM |
| N=C(N)N[C@H]1CO[C@H](COCc2ccccc2)[C@H](OCc2ccccc2)[C@@H]1OCc1ccccc1 [A73, 1-((3S,4R,5R,6R)-4,5-bis(benzyloxy)-6-((benzyloxy)methyl)tetrahydro-2H-pyran-3-yl)guanidine] | > 20000 nM |
| NC(COCCC(=O)NCCOCCOCCOCCOC[C@H]1OC[C@H](Nc2nccc(C(F)(F)F)n2)[C@@H](O)[C@H]1O)COCCC(=O)NCCOCCOCCOCCOC[C@H]1OC[C@H](Nc2nccc(C(F)(F)F)n2)[C@@H](O)[C@H]1O [A13, 3,3′-((2-aminopropane-1,3-diyl)bis(oxy))bis(N-(1-((2R,3R,4R,5S)-3,4-dihydroxy-5-((4-(trifluoromethyl)pyrimidin-2-yl)amino)tetrahydro-2H-pyran-2-yl)-2,5,8,11-tetraoxatridecan-13-yl)propanamide)] | < 100 nM |
| [N-]=[N+]=NC[C@H]1OC[C@H](Nc2cncc(C(F)(F)F)n2)[C@@H](O)[C@H]1O [A86, (2R,3R,4R,5S)-2-(azidomethyl)-5-((6-(trifluoromethyl)pyrazin-2-yl)amino)tetrahydro-2H-pyran-3,4-diol] | < 1000 nM |
| OC[C@@]12CO[C@@H](O1)[C@H](Nc1nccc(C(F)(F)F)c1F)[C@@H](O)[C@H]2O [A42, (1S,2R,3R,4R,5S)-4-[[3-fluoro-4-(trifluoromethyl)-2-pyridyl]amino]-1-(hydroxymethyl)-6,8-dioxabicyclo[3.2.1]octane-2,3-diol] | 10000 to 100000 nM |
| C=CCO[C@H]1O[C@H](Cn2cc(CO)nn2)[C@H](O)[C@H](O)[C@H]1NC(=O)C(F)(F)F [A63, N-((2S,3R,4R,5R,6R)-2-(allyloxy)-4,5-dihydroxy-6-((4-(hydroxymethyl)-1H-1,2,3-triazol-1-yl)methyl)tetrahydro-2H-pyran-3-yl)-2,2,2-trifluoroacetamide] | 1000 to 10000 nM |
| O=C(O)COc1ccc(COC[C@H]2OC[C@H](Nc3cncc(C(F)(F)F)n3)[C@@H](O)[C@H]2O)cc1 [A19, 2-(4-((((2R,3R,4R,5S)-3,4-dihydroxy-5-((6-(trifluoromethyl)pyrazin-2-yl)amino)tetrahydro-2H-pyran-2-yl)methoxy)methyl)phenoxy)acetic acid] | < 100 nM |
| COc1cc(N[C@H]2[C@H]3OC[C@](CO)(O3)[C@H](O)[C@@H]2O)nc(C(F)(F)F)n1 [A47, (1S,2R,3R,4R,5S)-1-(hydroxymethyl)-4-((6-methoxy-2-(trifluoromethyl)pyrimidin-4-yl)amino)-6,8-dioxabicyclo[3.2.1]octane-2,3-diol] | < 1000 nM |
| COc1cccc(-n2cc([C@H]3OC[C@H](Nc4nccc(C(F)(F)F)n4)[C@@H](O)[C@H]3O)nn2)c1 [A61, (2R,3R,4R,5S)-2-(1-(3-methoxyphenyl)-1H-1,2,3-triazol-4-yl)-5-((4-(trifluoromethyl)pyrimidin-2-yl)amino)tetrahydro-2H-pyran-3,4-diol] | 10000 to 100000 nM |
| OC[C@@]12CO[C@@H](O1)[C@H](Nc1cc(Cl)cnc1Cl)[C@@H](O)[C@H]2O [A44, (1S,2R,3R,4R,5S)-4-[(2,5-dichloro-3-pyridyl)amino]-1-(hydroxymethyl)-6,8-dioxabicyclo[3.2.1]octane-2,3-diol] | < 1000 nM |
| OC[C@H]1OCC(Nc2cc(C(F)(F)F)[nH]n2)[C@@H](O)[C@H]1O (stereo in doubt) [A93, (2R,3R,4R,5S)-2-(hydroxymethyl)-5-((5-(trifluoromethyl)-1H-pyrazol-3-yl)amino)tetrahydro-2H-pyran-3,4-diol] | > 100 nM |
| [N-]=[N+]=NCCCCCC(=O)NC(COCCC(=O)NCCOCCOCCOCCOC[C@@]12CO[C@@H](O1)[C@H](Nc1nc(Cl)ns1)[C@@H](O)[C@H]2O)COCCC(=O)NCCOCCOCCOCCOC[C@@]12CO[C@@H](O1)[C@H](Nc1nc(Cl)ns1)[C@@H](O)[C@H]2O [A14, 3,3′-((2-(6-azidohexanamido)propane-1,3-diyl)bis(oxy))bis(N-(1-((1S,2R,3R,4R,5S)-4-((3-chloro-1,2,4-thiadiazol-5-yl)amino)-2,3-dihydroxy-6,8-dioxabicyclo[3.2.1]octan-1-yl)-2,5,8,11-tetraoxatridecan-13-yl)propanamide)] | 100 to 500 nM |
| O=C(NC[C@H]1OC[C@H](Nc2cncc(C(F)(F)F)n2)[C@@H](O)[C@H]1O)[C@H]1C[C@H]1F [A108, (1R,2R)—N-(((2R,3R,4R,5S)-3,4-dihydroxy-5-((6-(trifluoromethyl)pyrazin-2-yl)amino)tetrahydro-2H-pyran-2-yl)methyl)-2-fluorocyclopropane-1-carboxamide] | > 20000 nM |
| N#Cc1cc(F)cnc1N[C@H]1[C@H]2OC[C@](CO)(O2)[C@H](O)[C@@H]1O [A40, 2-[[(1S,2R,3R,4R,5S)-2,3-dihydroxy-1-(hydroxymethyl)-6,8-dioxabicyclo[3.2.1]octan-4-yl]amino]-5-fluoro-pyridine-3-carbonitrile] | 1000 to 10000 nM |
| COc1cc(C(F)(F)F)nc(N[C@H]2[C@H]3OC[C@](CO)(O3)[C@H](O)[C@@H]2O)n1 [A46, (1S,2R,3R,4R,5S)-1-(hydroxymethyl)-4-((4-methoxy-6-(trifluoromethyl)pyrimidin-2-yl)amino)-6,8-dioxabicyclo[3.2.1]octane-2,3-diol] | < 1000 nM |
| OC[C@@]12CO[C@@H](O1)[C@H](Nc1nc(Cl)ncc1C(F)(F)F)[C@@H](O)[C@H]2O [A114, (1S,2R,3R,4R,5S)-4-((2-chloro-5-(trifluoromethyl)pyrimidin-4-yl)amino)-1-(hydroxymethyl)-6,8-dioxabicyclo[3.2.1]octane-2,3-diol] | < 1000 nM |
| C=CCO[C@H]1O[C@H](Cn2cc(-c3cccc(OC)c3)nn2)[C@H](O)[C@H](O)[C@H]1NC(=O)C(F)(F)F [A57, N-((2S,3R,4R,5R,6R)-2-(allyloxy)-4,5-dihydroxy-6-((4-(3-methoxyphenyl)-1H-1,2,3-triazol-1-yl)methyl)tetrahydro-2H-pyran-3-yl)-2,2,2-trifluoroacetamide] | 1000 to 10000 nM |
| O=C(CCOCC(COCCC(=O)NCCOCCOCCOCCOC[C@H]1OC[C@H](Nc2nccc(C(F)(F)F)n2)[C@@H](O)[C@H]1O)NC(=O)COCCOCCOCC(=O)NCCN1C(=O)C=CC1=O)NCCOCCOCCOCCOC[C@H]1OC[C@H](Nc2nccc(C(F)(F)F)n2)[C@@H](O)[C@H]1O [A130] | < 100 nM |
| [N-]=[N+]=NCCCCCC(=O)NC(COCc1cn(CCOCCOCCOCCOC[C@H]2OC[C@H](Nc3nccc(C(F)(F)F)n3)[C@@H](O)[C@H]2O)nn1)COCc1cn(CCOCCOCCOCCOC[C@H]2OC[C@H](Nc3nccc(C(F)(F)F)n3)[C@@H](O)[C@H]2O)nn1 [A15, 6-azido-N-(1,3-bis((1-(1-((2R,3R,4R,5S)-3,4-dihydroxy-5-((4-(trifluoromethyl)pyrimidin-2-yl)amino)tetrahydro-2H-pyran-2-yl)-2,5,8,11-tetraoxatridecan-13-yl)-1H-1,2,3-triazol-4-yl)methoxy)propan-2-yl)hexanamide] | < 100 nM |
| C[C@@H]1O[C@H](CO)[C@H](O)[C@H](O)[C@H]1Nc1nccc(C(F)(F)F)n1 [A55, (2R,3R,4R,5R,6S)-2-(hydroxymethyl)-6-methyl-5-((4-(trifluoromethyl)pyrimidin-2-yl)amino)tetrahydro-2H-pyran-3,4-diol] | 10000 to 100000 nM |
| OC[C@H]1OC[C@H](Nc2ccc(F)c(C(F)(F)F)n2)[C@@H](O)[C@H]1O [A82, (2R,3R,4R,5S)-5-((5-fluoro-6-(trifluoromethyl)pyridin-2-yl)amino)-2-(hydroxymethyl)tetrahydro-2H-pyran-3,4-diol] | 1000 to 10000 nM |
